In PubChem BioAssay (NCI):
Several values for one entry are separate records, joined by “and”; a condition that tells them apart may be missing. Equal entries are not always repeated.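 Dose response: 5 concentrations. Exposure: 48 h. Format: 96-well plates. Endpoint: linear interpolation; highest concentration if not reached. GI50 is the concentration that inhibits growth by half. At the TGI there is no net growth.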

Assays:
Test in all cases: DTP human tumour cell line panel, 48 h
IGROV1 ovarian = system: IGROV1 ovarian
SK-OV-3 ovarian = system: SK-OV-3 ovarian
COLO 205 colon = system: COLO 205 colon
SF-268 CNS = system: SF-268 CNS
UACC-257 melanoma = system: UACC-257 melanoma
NCI-H23 lung = system: NCI-H23 lung
SF-295 CNS = system: SF-295 CNS
CAKI-1 renal = system: CAKI-1 renal
OVCAR-5 ovarian = system: OVCAR-5 ovarian

Structure (SMILES)	TGI (IGROV1 ovarian)	TGI (SK-OV-3 ovarian)	TGI (COLO 205 colon)	TGI (SF-268 CNS)	TGI (UACC-257 melanoma)	TGI (NCI-H23 lung)	TGI (SF-295 CNS)	TGI (CAKI-1 renal)	GI50 (IGROV1 ovarian)	GI50 (COLO 205 colon)	TGI (OVCAR-5 ovarian)	GI50 (CAKI-1 renal)	GI50 (SK-OV-3 ovarian)	GI50 (SF-268 CNS)	GI50 (UACC-257 melanoma)	GI50 (NCI-H23 lung)	GI50 (SF-295 CNS)	GI50 (OVCAR-5 ovarian)
COc1ccc(-c2nnc(-c3c(C)n(C)n(-c4ccccc4)c3=O)o2)cc1	> 100 µM	> 100 µM	> 100 µM	> 100 µM	> 100 µM	> 100 µM	> 100 µM											
C/C(=N\NC(=O)c1cccnc1)c1cccc(/C(C)=N/NC(=O)c2cccnc2)n1.CC(=O)[O-].CC(=O)[O-].[Zn+2]	> 43.4 µM	> 100 µM	> 100 µM	84.4 µM	99.7 µM	> 67 µM	> 30.2 µM	31.4 µM	10.1 µM	904 nM	> 100 µM							
CC(C)N1CCC2(CC1)NNc1ncccc1-n1cccc12			> 100 µM	> 100 µM	> 100 µM	> 100 µM	> 100 µM	> 100 µM			> 100 µM							
C[C@H](CN1CC(=O)NC(=O)C1)N1CC(=O)NC(=O)C1	> 100 µM	> 100 µM	> 72.8 µM	> 100 µM	> 100 µM	> 100 µM	> 100 µM	> 100 µM			> 100 µM							
O=C(NC12CC3CC(CC(C3)C1)C2)C(=O)c1c[nH]c2ccc([N+](=O)[O-])cc12	> 100 µM	> 100 µM	> 100 µM	43.4 µM	> 100 µM	> 100 µM	37.9 µM	> 100 µM			> 100 µM							
NC(=O)CCC(NC(=O)c1cccc2c(=O)c3ccccc3[nH]c12)C(=O)O (centres undefined)	> 100 µM	> 100 µM	> 100 µM	> 100 µM		> 100 µM	> 100 µM				> 100 µM							
Nc1nn(CC(O)CO)c(=O)s1 (centres undefined)	> 100 µM	> 100 µM	> 100 µM	> 100 µM	> 100 µM	> 100 µM	> 100 µM				> 100 µM							
CN(C)CCCNc1cnc2cc3ccccc3cc2n1	31.8 µM	> 100 µM	38.8 µM	77.1 µM	42.5 µM	> 100 µM	52.4 µM	74.4 µM			81.9 µM							
CC1=Nc2c(C#N)ncn2N=C(C)C1	> 100 µM	> 100 µM	> 100 µM	> 100 µM	> 100 µM	> 100 µM	> 100 µM	> 100 µM			> 100 µM							
CC(C)(C)c1cc(/C=C/C(=O)CC(=O)/C=C/c2cc(C(C)(C)C)c(O)c(C(C)(C)C)c2)cc(C(C)(C)C)c1O	> 50 µM	> 50 µM	> 50 µM	> 50 µM	> 50 µM	> 50 µM	> 50 µM				> 50 µM							
O=C1C2=C(CCCCC2)C2CCCCC12O (centres undefined)	> 100 µM	> 100 µM	> 100 µM	> 100 µM	> 100 µM	> 100 µM	> 100 µM											
Cc1ccc(C(=O)C2=CN=C3C(=O)N(c4ccccc4)N(C)C3(C)C2=N)cc1 (centres undefined)	> 100 µM	> 100 µM	> 100 µM		> 100 µM	> 100 µM	> 100 µM	> 100 µM			> 100 µM							
Cn1cc(-c2nc(-c3c[nH]c4ccncc34)cs2)c2cc(F)ccc21	3.41 µM	3.37 µM		3.44 µM	3.56 µM	3.25 µM	3.02 µM	3.04 µM	1.86 µM		3.11 µM	1650 nM	1920 nM	1.74 µM	1970 nM	1.72 µM	1.64 µM	1.68 µM
C=C1C(=O)O[C@@H]2OC3(C)CCC4C(C)CCC1C42OO3 (some centres undefined)	16.7 µM and 12.7 µM	34.7 µM	12.4 µM and 10.8 µM	18.1 µM and 11.6 µM	14.1 µM and 12 µM	22 µM and 17.5 µM	25.1 µM and 13.4 µM	5.95 µM	4.71 µM	3990 nM	39.7 µM and 29.3 µM			4.56 µM		7.77 µM	11.7 µM	24.5 µM
CO[C@H]1C[C@H](n2cc(C)c(=O)[nH]c2=O)O[C@@H]1CO	> 100 µM	> 100 µM	> 100 µM	> 100 µM	> 100 µM	> 100 µM	> 100 µM	> 100 µM			> 100 µM							
COc1cc2cc3c4c(cc(OC)c(OC)c4c2cc1OC)CCN3C(=O)N(C)C	> 100 µM	> 100 µM	> 100 µM	> 100 µM	> 100 µM	> 10 µM	> 100 µM	> 100 µM			> 100 µM							
COC(=O)[C@@]12OC[C@]34C([C@@H](O)C1O)[C@@]1(C)CC(=O)C(O)=C(C)C1C[C@H]3OC(=O)[C@H](OC(=O)/C=C(/c1ccccc1)C(F)(F)F)[C@H]42 (some centres undefined)	11.5 µM	> 25 µM	21.1 µM	> 25 µM	> 25 µM	6.73 µM	12.7 µM	> 25 µM			> 25 µM							
CCCCCCCC(=O)OCC(C[As](=O)(O)O)OC(=O)CCCCCCC (centres undefined)	26.9 µM	29.1 µM	27.6 µM	28.7 µM	28.1 µM	28.7 µM	30.6 µM											
